Here are results for two compounds from patent US7589080B2, “β-cyclodextrin compositions, and use to prevent transmission of sexually transmitted diseases” (priority 2000, dated 2009).

For one series, the system named is HIV. To be noted: inhibition of sphingolipid synthesis; cited from earlier work.
A further series relates to vaginal epithelium. The series is described as follows: Vaginal epithelial toxicity (ethidium bromide homodimer-1 staining). The format is in vivo, CF-1 mice. To be noted: 1% (w/v), intravaginal, 15 min. On the procedure:
CF-1 mice were pretreated with 2.5 mg progestin; one week later, three groups of three mice each were inoculated with 50 Tl of either PBS, 1% (w/v) nonoxynol-9, or 3% (w/v) 2-OH-βCD (20 mM). Each test solution also contained the membrane-impermeant DNA binding fluorescent dye, ethidium bromide homodimer-1 (20 TM, Molecular Probes; Eugene Oreg.; Hyytinen et al., supra, 1994). Fifteen min following exposure to the test agents the mice were euthanized, the vaginas were dissected and opened longitudinally, and viewed using a fluorescent microscope and TRITC filter set.
To examine the effect of a βCD on the vaginal epithelium, CF-1 mice were pretreated with progesterone and one week later were inoculated with 50 Tl of either phosphate buffered saline (PBS), 1% (w/v) nonoxynol-9, or 3% (w/v) 2-OH-βCD (20 mM) containing the membrane impermeant DNA binding fluorescent dye, ethidium bromide homodimer-1. The vaginas of the mice were viewed by fluorescent microscopy.

For `CCCCCCCCCCCCCCCC(=O)NC(CN1CCOCC1)C(O)c1ccccc1` (centres unmarked) [PPMP, 1-phenyl-2-hexadecanoylamino-3-morpholino-1-propanol], in the series with HIV, the “Reduction of HIV infection of CD4+ human cells” value is given as 50%.
Take nonoxynol-9: the “Damage to vaginal epithelium” value in the series with vaginal epithelium was “considerable epithelial damage”.
